The values below come from patent publication US20250129074A1, “CHIMERIC COMPOUND FOR TARGETED DEGRADATION OF ANDROGEN RECEPTOR PROTEIN, PREPARATION METHOD THEREFOR, AND MEDICAL USE THEREOF” (Jiangsu Hengrui Pharmaceuticals Co., Ltd., priority 2021, published 2025).

Assay [1] concerns LNCaP cells. The experiment in a line: Inhibition of LNCaP proliferation (CellTiter-Glo). The format is cell-based. The conditions noted are these: Homo sapiens, 144 h, 0.1 nM R1881, six days; for Emax: read-out: Max (maximum proliferation inhibition rate). On the procedure: The plate was incubated in a 37° C., 5% CO2 cell incubator for three days. […] A blank control cell well containing 0.5% DMSO and a cell-free vehicle control well were set up. The plate was incubated in a 37° C., 5% CO2 cell incubator for six days.
Background: ATP-based viability assays read luminescence as a measure of living cells.

Assay [2] concerns the target T1, androgen receptor (AR) (Homo sapiens, UniProt P10275, T878A).
T1 construct: host or cells: LNCaP human prostate cancer cells
T1 sequence (P10275 1-920 T878A): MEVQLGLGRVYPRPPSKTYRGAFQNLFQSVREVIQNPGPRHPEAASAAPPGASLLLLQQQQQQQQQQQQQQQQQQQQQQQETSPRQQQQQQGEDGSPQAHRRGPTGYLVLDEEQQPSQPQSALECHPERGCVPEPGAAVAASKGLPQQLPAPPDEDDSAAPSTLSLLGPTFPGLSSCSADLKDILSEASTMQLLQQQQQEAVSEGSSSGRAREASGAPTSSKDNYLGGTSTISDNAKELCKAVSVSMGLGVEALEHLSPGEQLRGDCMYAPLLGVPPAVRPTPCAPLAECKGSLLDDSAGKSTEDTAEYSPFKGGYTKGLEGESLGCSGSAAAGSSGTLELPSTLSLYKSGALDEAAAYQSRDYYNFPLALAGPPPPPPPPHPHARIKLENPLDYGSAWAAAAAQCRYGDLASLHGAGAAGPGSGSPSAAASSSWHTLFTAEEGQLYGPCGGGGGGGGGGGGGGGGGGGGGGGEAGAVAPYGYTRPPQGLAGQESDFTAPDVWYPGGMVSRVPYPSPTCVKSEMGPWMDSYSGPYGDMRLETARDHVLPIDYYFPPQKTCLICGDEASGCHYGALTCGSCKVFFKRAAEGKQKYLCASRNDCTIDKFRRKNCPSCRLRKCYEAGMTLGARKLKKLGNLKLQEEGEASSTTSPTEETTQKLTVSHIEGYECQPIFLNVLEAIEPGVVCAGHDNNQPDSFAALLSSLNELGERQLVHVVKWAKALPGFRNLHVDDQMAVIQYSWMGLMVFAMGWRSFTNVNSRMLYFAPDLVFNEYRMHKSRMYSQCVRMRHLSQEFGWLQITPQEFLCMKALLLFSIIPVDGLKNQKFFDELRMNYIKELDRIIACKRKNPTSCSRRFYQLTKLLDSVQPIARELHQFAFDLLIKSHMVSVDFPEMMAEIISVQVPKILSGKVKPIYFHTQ
The experiment in a line: Degradation activity on androgen receptor in LNCaP cells (AR ELISA). The conditions noted are these: 0.1 nM R1881, 24 hours; for DC50: read-out: LNCaP DC50; for Dmax: read-out: Max (maximum AR degradation rate). The format is cell-based. The procedure:
The plate was incubated in a 37° C., 5% CO2 cell incubator for three days. […] A blank control cell well containing 0.5% DMSO was set up. The plate was incubated in a 37° C., 5% CO2 cell incubator for 24 hours. […] The lysate was well mixed by pipetting up and down and then centrifuged at 4000 rpm at 4° C. for 10 minutes. […] The plate was sealed and incubated in a 37° C. incubator for 1 hour. […] The plate was sealed and then incubated in a 37° C. incubator for 30 minutes.
(An ELISA detects its analyte on a solid surface through an enzyme-linked reagent.)

For the compound `C[C@H]1CC2(CCN(c3ccc(C(=O)N4CCC(N5CC(N6CCN(c7ccc(N8CCC(=O)NC8=O)cc7)CC6)C5)CC4)cc3)CC2)CN1c1ccc(C#N)c(Cl)c1` [Example 7, (S)-2-Chloro-4-(8-(4-(4-(3-(4-(4-(2,4-dioxotetrahydropyrimidin-1(2H)-yl)phenyl)piperazin-1-yl)azetidin-1-yl)piperidine-1-carbonyl)phenyl)-3-methyl-2,8-diazaspiro[4.5]decan-2-yl)benzonitrile], in assay [1], the IC50 (usually the midpoint of a concentration-inhibition curve) came out at 4.6 nM and the Emax was 53%. In assay [2], the DC50 (in general, the concentration giving 50% degradation) stood at 1 nM and the Dmax came out at 93%.

In the case of `C[C@H]1CC2(CCN(c3ccc(C(=O)N4CCC5(CC4)CC(N4CCN(c6ccc(C7CCC(=O)NC7=O)cc6)CC4)C5)cc3)CC2)CN1c1ccc(C#N)c(Cl)c1` (stereo partly drawn) [Example 34, 2-Chloro-4-((3S)-8-(4-(2-(4-(4-(2,6-dioxopiperidin-3-yl)phenyl)piperazin-1-yl)-7-azaspiro[3.5]nonane-7-carbonyl)phenyl)-3-methyl-2,8-diazaspiro[4.5]decan-2-yl)benzonitrile], in assay [1], the IC50 was found to be 12 nM and the Emax stood at 60%. Besides, in assay [2], the DC50 is 5 nM and the Dmax is 96%.

Take `Cc1c(N2CCC3(CCN(c4ccc(C(=O)N5CCC(CN6CCN(c7cccc(NC8CCC(=O)NC8=O)c7)CC6)CC5)cc4)CC3)C2)ccc(C#N)c1Cl` (racemic) [Example 38, (±)-2-Chloro-4-(8-(4-(4-((4-(3-((2,6-dioxopiperidin-3-yl)amino)phenyl)piperazin-1-yl)methyl)piperidine-1-carbonyl)phenyl)-2,8-diazaspiro[4.5]decan-2-yl)-3-methylbenzonitrile]: in assay [1], the IC50 was 49 nM and the Emax was found to be 60%. In assay [2], the DC50 was found to be 11.7 nM and the Dmax came to 96%.

With `C[C@H]1CC2(CCN(c3ccc(C(=O)N4CCC(CN5CC(N6CCN(c7ccc(N8CCC(=O)NC8=O)cc7)CC6)C5)CC4)cc3)CC2)CN1c1ccc(C#N)c(Cl)c1` [Example 8, (S)-2-Chloro-4-(8-(4-(4-((3-(4-(4-(2,4-dioxotetrahydropyrimidin-1(2H)-yl)phenyl)piperazin-1-yl)azetidin-1-yl)methyl)piperidine-1-carbonyl)phenyl)-3-methyl-2,8-diazaspiro[4.5]decan-2-yl)benzonitrile], in assay [1], 9.8 nM corresponded to half-maximal inhibition (IC50) and the Emax came out at 31%. For the same compound, in assay [2], the DC50 stood at 1.6 nM and the Dmax came to 85%.

Take `C[C@H]1CC2(CCN(c3ccc(C(=O)N4CCC(CN5CCN(c6ccc(C(=O)NC7CCC(=O)NC7=O)c(F)c6)CC5)CC4)cc3)CC2)CN1c1ccc(C#N)c(Cl)c1` (stereo partly drawn) [Example 3, 4-(4-((1-(4-((S)-2-(3-Chloro-4-cyanophenyl)-3-methyl-2,8-diazaspiro[4.5]decan-8-yl)benzoyl)piperidin-4-yl)methyl)piperazin-1-yl)-N-(2,6-dioxopiperidin-3-yl)-2-fluorobenzamide]: in assay [1], the midpoint of inhibition, the IC50, lay at 286 nM and the Emax amounted to 60%. In assay [2], the DC50 was 22.1 nM and the Dmax is 89%.

As to `C[C@H]1CC2(CCN(c3ccc(C(=O)N4CCC5(CCC(N6CCN(c7ccc(N8CCC(=O)NC8=O)cc7)CC6)CC5)CC4)cc3)CC2)CN1c1ccc(C#N)c(Cl)c1` [Example 29, (S)-2-Chloro-4-(8-(4-(9-(4-(4-(2,4-dioxotetrahydropyrimidin-1(2H)-yl)phenyl)piperazin-1-yl)-3-azaspiro[5.5]undecane-3-carbonyl)phenyl)-3-methyl-2,8-diazaspiro[4.5]decan-2-yl)benzonitrile], in assay [1], the IC50 came to 81 nM and the Emax was found to be 45%. In assay [2], the DC50 came out at 12 nM and the Dmax came to 93%.

Take `C[C@H]1CC2(CCN(c3ccc(C(=O)N4CCC(CN5CCC(c6cccc(NC7CCC(=O)NC7=O)c6)CC5)CC4)nn3)CC2)CN1c1ccc(C#N)c(Cl)c1` (stereo partly drawn) [Example 20, 2-Chloro-4-((3S)-8-(6-(4-((4-(3-((2,6-dioxopiperidin-3-yl)amino)phenyl)piperidin-1-yl)methyl)piperidine-1-carbonyl)pyridazin-3-yl)-3-methyl-2,8-diazaspiro[4.5]decan-2-yl)benzonitrile]: in assay [1], the IC50 amounted to 15 nM and the Emax was determined as 59%. Further, in assay [2], the DC50 is 0.4 nM and the Dmax is 92%.

On to `C[C@H]1CC2(CCN(c3ccc(C(=O)N4CCC(N5CCC(N6CCN(c7ccc(N8CCC(=O)NC8=O)cc7)CC6)CC5)CC4)cc3)CC2)CN1c1ccc(C#N)c(Cl)c1` [Example 6, (S)-2-Chloro-4-(8-(4-(4-(4-(4-(2,4-dioxotetrahydropyrimidin-1(2H)-yl)phenyl)piperazin-1-yl)-[1,4′-bipiperidine]-1′-carbonyl)phenyl)-3-methyl-2,8-diazaspiro[4.5]decan-2-yl)benzonitrile], for which, in assay [1], 24.6 nM corresponded to half-maximal inhibition (IC50) and the Emax was 50%. Also, in assay [2], the DC50 amounted to 5.7 nM and the Dmax was 86%.

Consider `C[C@H]1CC2(CCN(c3ccc(C(=O)N4CCC5(CC4)CC(N4CCN(c6ccc(N7CCC(=O)NC7=O)cc6)CC4)C5)nc3)CC2)CN1c1ccc(C#N)c(Cl)c1` [Example 32, (S)-2-Chloro-4-(8-(6-(2-(4-(4-(2,4-dioxotetrahydropyrimidin-1(2H)-yl)phenyl)piperazin-1-yl)-7-azaspiro[3.5]nonane-7-carbonyl)pyridin-3-yl)-3-methyl-2,8-diazaspiro[4.5]decan-2-yl)benzonitrile], for which, in assay [1], the 50% inhibitory concentration (IC50) was 3.1 nM and the Emax stood at 63%. For the same compound, in assay [2], the DC50 was determined as 1 nM and the Dmax amounted to 95%.

`C[C@H]1CC2(CCN(c3ccc(C(=O)N4CC(CN5CCC(c6cccc(NC7CCC(=O)NC7=O)c6)CC5)C4)nn3)CC2)CN1c1ccc(C#N)c(Cl)c1` (stereo partly drawn) [Example 21, 2-Chloro-4-((3S)-8-(6-(3-((4-(3-((2,6-dioxopiperidin-3-yl)amino)phenyl)piperidin-1-yl)methyl)azetidine-1-carbonyl)pyridazin-3-yl)-3-methyl-2,8-diazaspiro[4.5]decan-2-yl)benzonitrile]: in assay [1], inhibition was half-maximal at 16 nM (IC50) and the Emax stood at 60%. For the same compound, in assay [2], the half-maximal degradation concentration (DC50) worked out at 0.5 nM and the Dmax stood at 94%.

As to `C[C@H]1CC2(CCN(c3ccc(C(=O)N4CC(CN5CCN(c6cccc(NC7CCC(=O)NC7=O)c6)CC5)C4)nn3)CC2)CN1c1ccc(C#N)c(Cl)c1` (stereo partly drawn) [Example 22, 2-Chloro-4-((3S)-8-(6-(3-((4-(3-((2,6-dioxopiperidin-3-yl)amino)phenyl)piperazin-1-yl)methyl)azetidine-1-carbonyl)pyridazin-3-yl)-3-methyl-2,8-diazaspiro[4.5]decan-2-yl)benzonitrile], in assay [2], the DC50 came out at 0.4 nM and the Dmax stood at 97%.

In the case of `C[C@H]1CC2(CCN(c3ccc(C(=O)N4CCC(CN5CCN(c6ccc(C(=O)NC7CCC(=O)NC7=O)cc6)CC5)CC4)cc3)CC2)CN1c1ccc(C#N)c(Cl)c1` (stereo partly drawn) [Example 43, 4-(4-((1-(4-((S)-2-(3-Chloro-4-cyanophenyl)-3-methyl-2,8-diazaspiro[4.5]decan-8-yl)benzoyl)piperidin-4-yl)methyl)piperazin-1-yl)-N-(2,6-dioxopiperidin-3-yl)benzamide], in assay [2], the DC50 is 9.3 nM and the Dmax is 92%.

For `C[C@H]1CC2(CCN(c3ccc(C(=O)N4CCC(CN5CCN(c6ccccc6NC6CCC(=O)NC6=O)CC5)CC4)cc3)CC2)CN1c1ccc(C#N)c(Cl)c1` (stereo partly drawn) [Example 39, 2-Chloro-4-((3S)-8-(4-(4-((4-(2-((2,6-dioxopiperidin-3-yl)amino)phenyl)piperazin-1-yl)methyl)piperidine-1-carbonyl)phenyl)-3-methyl-2,8-diazaspiro[4.5]decan-2-yl)benzonitrile], in assay [2], the DC50 was found to be 13.9 nM and the Dmax was found to be 86%.
